Experimental data: patent US20090270352A1, “Tenofovir Disoproxil Hemi-Fumaric Acid Co-Crystal” (ULTIMORPHIX TECHNOLOGIES B.V., priority 2007, published 2009)
Structures can show the parent of a compound that is named as a salt.

Experiment: Dynamic Vapour Sorption (DVS) moisture sorption isotherm
Type: physicochemical
Settings: for total uptake of water vapours: DVS, 25° C., relative humidity 0% to 95% in steps of 5%, 1 h per step, sorption-desorption cycle
Protocol: Moisture sorption isotherms were measured using a DVS-1 system of Surface Measurement Systems (London, UK). Differences in moisture uptake of various forms of a solid material indicate differences in the relative stabilities of the various solid forms for increasing relative humidity. The experiment was carried out at a constant temperature of 25° C.
A sample of about 11.5 mg of form TDFA 2:1 was spread in the DVS pan. The sample was dried at 0% RH for 7 h. Subsequently the relative humidity of the chamber was increased in steps of 5% units from 0% to 95% in order to monitor the sorption of water vapours. The samples remained in each of the steps for 1 h. Following, desorption was monitored by decreasing the relative humidity to 0% in steps of 5% units and remaining at each step for 1 h. The total uptake of water vapours was about 0.8%, which is line with the industry standard for hygroscopicity. In a similar DVS experiment using the starting material as purchased, the total vapour intake was about 4%, which is undesirable in formulation and requires additional measures.

Row | SMILES | total uptake of water vapours | changes in the structure by XRPD at the end of the DVS experiment (solid material measured by XRPD after the DVS sorption-desorption cycle (FIG. 4))
1 | CC(C)OC(=O)OCOP(=O)(CO[C@H](C)Cn1cnc2c(N)ncnc21)OCOC(=O)OC(C)C.CC(C)OC(=O)OCOP(=O)(CO[C@H](C)Cn1cnc2c(N)ncnc21)OCOC(=O)OC(C)C.O=C(O)/C=C/C(=O)O [TDFA 2:1, co-crystal of tenofovir disoproxil and fumaric acid in a 2:1 molar ratio] | about 0.8% | no any changes in the structure
2 | CC(C)OC(=O)OCOP(=O)(CO[C@H](C)Cn1cnc2c(N)ncnc21)OCOC(=O)OC(C)C [starting material, 9-[(R)-2-[[bis[[(isopropoxycarbonyl)oxy]methoxy]phosphinyl]-methoxy]propyl] adenine fumarate (1:1), reference compound] | about 4% | –
